3 compounds from patent publication US9110051B2, “Pharmacologic method of lowering cholesterol production” (The University of Chicago, priority 2004, dated 2015) can be followed below.

Holding throughout (assay type): cell-based
One assay concerns red cell membranes. Description: Oxidation of red cell membrane cholesterol by cholesterol oxidase. Conditions: 0-12 μmolar analog pretreatment; cholesterol oxidase 1 h, FIG. 5. The protocol:
The red cell membranes were pretreated with ceramide or diglycerides and then treated with cholesterol oxidase for a hour. An increase in oxidation following cholesterol oxidase treatment signifies an increase in active cellular cholesterol.
Red cell membrane lysis is measured using cholesterol oxidase as set forth in the examples above. Prior to lysis, red cell membranes are treated with either differing amounts of a ceramide analog (0-12 μmolar) or differing amounts of a diglyceride analog (0-12 μmolar). The increased level of plasma membrane cholesterol activity is detected by susceptibility to cholesterol oxidase and measured as a % of oxidation.

The next assay relates to red blood cells. Description: Lysis of red blood cells by saponin. The note with it: saponin 0-8 μg/well, 30 minutes, compared to solvent control, FIG. 6. Here is the method:
Red blood cells were pre-treated with either octanol, diglyceride, ceramide, or solvent before incubation with varying concentrations of saponin. The decrease in optical absorbance at 500 nm indicates increasing lysis.
Red cell membranes are treated with octanol, diglyceride, ceramide, or solvent before incubation with different concentrations of saponin (0-8 μg/well) for 30 minutes. Optical absorbance at OD500 is measured. Decreased optical absorbance indicates increasing lysis by saponin.

For assay [1], the system named is human fibroblast cell line. The assay can be described thus: Fibroblast plasma membrane cholesterol susceptibility to cholesterol oxidase. The note with it: adding 0.1-1.0 mM octanol. Here is the method:
A human fibroblast cell line is grown in bulk culture and seeded into microtiter wells the day before experimentation. The fibroblast cells from the fibroblast cell line are rinsed and treated with octanol plus cholesterol oxidase as in Example 2. The increased level of plasma membrane cholesterol activity is detected in two ways. First, plasma membrane cholesterol activity is detected by susceptibility to cholesterol oxidase. […] Cell lysis caused by cholesterol oxidation can also be determined by measuring increased cell permeability using a plate fluorescence reader and the impermeable indicator of potassium ions, PBFI, or another indicator system.

The next assay has as its system human red blood cells. The assay can be described thus: Screen using red blood cell lysis by amphotericin B. The note with it: for effect on amphotericin B lysis of red cells (activity of membrane cholesterol): cholesterol lowered with cyclodextrin, turbidity or by eye, FIGS. 1 and 2; for red blood cell lysis caused by amphotericin B (visual screen): cholesterol-modified cells, octanol 0.2 μmol/well or lysophosphatidylcholine 1 μg/well, amphotericin B 20 μg/well, 1 h, room temperature. Here is the method:
Human red blood cells were either freshly drawn or taken from an outdated blood bank source and then washed and suspended in physiological buffer. The cholesterol content of washed human red blood cells was varied with methyl-β-cyclodextrin/methyl-β-cyclodextrin-cholesterol complexes. The cells were distributed into a 96-well plate and incubated for a few minutes with saline (O), 0.2 μmol/well octanol (V) or 1 μg/well lysophosphatidylcholine (□). Amphotericin B (20 μg/well) was added and the plate incubated for 1 hour at room temperature. […] In FIG. 1, turbidity (signifying intact cells) was determined in a plate-reading photometer as optical density (OD) at 500 nm; loss of OD signifies lysis. In FIG. 1, results are plotted versus total human red blood cell cholesterol, assessed with Amplex™ Red, Molecular Probes, Eugene, Oreg. The cholesterol content of unmodified red blood cells was 0.55 μg/μl cells, close to the threshold of the control curve.
Cells with modified cholesterol were placed in the conical wells of a 96-well plate, briefly pre-incubated with the two test compounds, and then treated with amphotericin B (20 μg/well) for one hour at room temperature. The plate was photographed after the cells settled. Row A: saline control. Cells depleted of cholesterol (wells 1-6) resisted lysis (seen as a loss of the central button). Row B: n-octanol (0.2 μmol/well). […] Row C: Lysophosphatidylcholine (1 μg/well).
Human red cells (freshly drawn or from an outdated blood bank source) were washed and suspended in physiological buffer. […] The cholesterol modified cells were placed in the wells of a microtiter plate and incubated for a few minutes at room temperature with octanol and lysophosphatidylcholine, which can be replaced with a battery of drugs (individually or in mixtures). Amphotericin B was then added and the plate incubated at room temperature for an hour. Cell lysis was scored by reading light scattering in a plate-reading photometer (FIG. 1) or, more simply, by letting the unlysed cells settle for an hour in conical wells and then assessing hemolysis by eye (FIG. 2).
Polyene antibiotics such as amphotericin B are known to promote the disruption of cholesterol containing membranes. However, this action depends critically on the cholesterol level in the membrane (see the control curves, O - - - O, in FIGS. 1 and 2). The critical cholesterol content for lysis is close to the physiological level in human fibroblast plasma membranes, for the same reason that ER cholesterol responds dramatically near the physiological content of the plasma membrane. […]

Another assay has as its system human fibroblasts. Description: Effect of octanol on fibroblast cholesterol. Conditions: 24 h in growth medium with octanol, FIG. 4. Here is the method:
FIG. 4 depicts the effect of octanol on fibroblast cholesterol. Replicate flasks of fibroblasts were incubated for 24 h in growth medium with octanol. The cells were then assayed for cholesterol and protein.
The cultured cells described in Example 3 will be plated in microtiter wells and incubated with test compounds at 37° C. for two days to allow a full metabolic response. The drug will then be washed away, amphotericin B added to the wells and cell lysis followed from the leakage of potassium ions or another indicator, as above. Resistance to amphotericin B lysis will indicate that the objective has been achieved: the reduction of plasma membrane cholesterol in response to the test compound. Other polyene antibiotics (e.g., nystatin and filipin) will be tested in place of amphotericin B in order to discern their effects. In contrast to the screens described in the previous examples, which are used to identify compounds that raise the activity of membrane cholesterol, the present assay will measure the long-term effect of modulating cholesterol levels. Agents that increase plasma membrane cholesterol activity, when used as drugs, will signal cells to reduce their cholesterol accretion homeostatically. […] This can be detected by their increased resistance to amphotericin B, which normally lyses these cells.

As to ceramide, in the assay with red cell membranes, the “susceptibility of red cell cholesterol to oxidation by cholesterol oxidase (% of oxidation)” value was “increase the susceptibility of red cell cholesterol to oxidation”. The “lysis of red blood cells by saponin (OD500)” value in the assay with red blood cells is “increase lysis of red blood cells at lower concentrations of saponin”.

In the case of `CCCCCCCCO` [octanol, n-octanol], the “lysis of red blood cells by saponin (OD500)” value in the assay on red blood cells is “increase lysis of red blood cells at lower concentrations of saponin”. Moreover, in assay [1], the “oxidation of fibroblast cholesterol by cholesterol oxidase” value was “readily oxidized”. Further, in the assay with human red blood cells, the “effect on amphotericin B lysis of red cells (activity of membrane cholesterol)” value is recorded as “favors amphotericin B lysis” and the “red blood cell lysis caused by amphotericin B (visual screen)” value is “Even cholesterol depleted cells were lysed by amphotericin B”. Besides, the “fibroblast cell cholesterol after prolonged culture” value in the assay on human fibroblasts is reported as “resulted in cholesterol reduction”.

With lysophosphatidylcholine, in the assay with human red blood cells, the “effect on amphotericin B lysis of red cells (activity of membrane cholesterol)” value is recorded as “has the opposite effect” and the “red blood cell lysis caused by amphotericin B (visual screen)” value is recorded as “Even enriched cells resisted amphotericin B lysis”.
